“And” between values parts separate entries of the source, which are not always exact repeats. Equal values may be shown once.
What was measured:
hP2X4R = system: T1, hP2X4R; assay: Calcium influx assay, 1321N1 astrocytoma cells, ATP EC80; assay type: cell-based, human; conditions: 10 μM antagonist, ATP 300 nM
T1 construct: expressed in transfected cells
Excerpt: (§1) . For 1321N1 astrocytoma cells stably expressing the human, rat, or mouse P2X7Rs, or hP2X2Rs or hP2X4Rs, the fluorescent Ca^2+-chelating dye Fluo-4 acetoxymethyl ester (Fluo-4 AM, Thermo Fisher Scientific, Dreieich, Germany) was used. For 1321N1 astrocytoma cell lines recombinantly expressing the hP2X1Rs or hP2X3Rs, the FLIPR® Calcium 5 Assay Kit (Molecular Devices, San José, CA, USA) was employed. Human, rat, and mouse P2X7Rs as well as hP2X1Rs, hP2X2Rs, hP2X3Rs, and hP2X4Rs were recombinantly expressed in 1321N1 astrocytoma cells using a retroviral expression system[72]–[74].
(§2) On the first day, 45,000 cells per well (30,000 cells for the human P2X3 receptor-expressing cells) were seeded into a 96-well polystyrene microplate with a black, flat bottom in a final volume of 200 µL. After overnight incubation at 37 °C and 10% CO2 (5% CO2 for the human P2X3R-expressing cell line), the medium was removed by inverting the plate, and the cells were loaded with dye solution. Hanks’ balanced salt solution (HBSS, Thermo Fisher Scientific, Dreieich, Germany) was used as the assay buffer for human P2X1R, P2X2R, P2X3R, and P2X4R. For the P2X7Rs, a different assay buffer was used: 150 mM sodium-glutamate, 5 mM KCl, 0.5 mM CaCl2, 0.1 mM MgCl2, 10 mM D-glucose, 25 mM 4-(2-hydroxyethyl)-1-piperazineethanesulfonic acid (HEPES), pH 7.4. The dye solutions were freshly prepared. The Fluo-4 AM solution contained 3 µM of Fluo-4 AM in assay buffer and 1% of the non-ionic detergent Pluronic F-127® (Sigma-Aldrich, Taufkirchen, Germany). The Calcium 5 dye, used for hP2X1Rs and hP2X3Rs, was prepared in HBSS buffer. Cells were loaded with Fluo-4 AM and incubated for 1 h at room temperature with gentle shaking (100 rpm), while those loaded with the Calcium 5 dye were incubated for 1 h at 37 °C. After incubation, the dye solution was carefully removed from the plate, and buffer was added to the cells for the evaluation of agonists. […] The agonist solution was prepared in a 96-well transparent plate, obtaining the respective EC80 values. As a control, assay buffer without the test compound was used. After 30 min of incubation with antagonist, the plates were measured using a fluorescence imaging plate reader NOVOstar (BMG Labtech GmbH, Offenburg, Germany) at an excitation wavelength of 485 nm and an emission wavelength of 520 nm, for 30 s at 0.4 s intervals. Calcium influx measurements were then initiated by automatic addition of 20 µL of agonist solution by the plate reader’s pipetting device. Data were analyzed using Microsoft Excel and GraphPad Prism (Version 8.0, San Diego, CA, USA). EC80 and IC50 values were calculated using nonlinear regression with a sigmoidal dose-response equation.

hP2X2R = system: T2, hP2X2R; assay: as above; assay type: cell-based, human; conditions: 10 μM antagonist, ATP 1000 nM
T2 construct: expressed in transfected cells
Excerpt: as §1, §2

rP2X7R = target: T3, rP2X7R (Rattus norvegicus, UniProt Q64663); assay: Calcium influx assay, 1321N1 astrocytoma cells, BzATP EC80; assay type: cell-based; parameters: expressed in transfected cells; conditions: for IC50: 1321N1 cells, BzATP EC80, mean ± SD
T3 sequence (Q64663 1-595): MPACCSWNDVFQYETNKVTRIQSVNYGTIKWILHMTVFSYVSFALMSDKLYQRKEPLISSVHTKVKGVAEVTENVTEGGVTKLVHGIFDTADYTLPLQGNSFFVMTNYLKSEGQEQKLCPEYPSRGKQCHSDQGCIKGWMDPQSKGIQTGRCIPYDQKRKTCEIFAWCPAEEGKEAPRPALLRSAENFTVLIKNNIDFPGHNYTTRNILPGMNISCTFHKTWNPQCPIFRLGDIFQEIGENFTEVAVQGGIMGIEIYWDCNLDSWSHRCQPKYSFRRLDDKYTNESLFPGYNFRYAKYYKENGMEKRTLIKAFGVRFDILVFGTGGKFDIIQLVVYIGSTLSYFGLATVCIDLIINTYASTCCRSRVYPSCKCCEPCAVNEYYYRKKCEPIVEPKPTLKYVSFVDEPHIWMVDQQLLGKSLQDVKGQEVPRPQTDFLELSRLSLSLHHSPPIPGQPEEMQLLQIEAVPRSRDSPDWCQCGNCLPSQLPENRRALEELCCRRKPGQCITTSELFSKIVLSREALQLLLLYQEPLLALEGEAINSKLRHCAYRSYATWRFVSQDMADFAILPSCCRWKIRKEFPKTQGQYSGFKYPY
Excerpt: as §1, §2

hP2X3R = target: T4, hP2X3R (Homo sapiens, UniProt P56373, S15V); assay: Calcium influx assay, 1321N1 astrocytoma cells, ATP EC80; assay type: cell-based
T4 construct: expressed in transfected cells; host or cells: 1321N1 astrocytoma cells, retroviral expression system
T4 sequence (P56373 1-397 S15V): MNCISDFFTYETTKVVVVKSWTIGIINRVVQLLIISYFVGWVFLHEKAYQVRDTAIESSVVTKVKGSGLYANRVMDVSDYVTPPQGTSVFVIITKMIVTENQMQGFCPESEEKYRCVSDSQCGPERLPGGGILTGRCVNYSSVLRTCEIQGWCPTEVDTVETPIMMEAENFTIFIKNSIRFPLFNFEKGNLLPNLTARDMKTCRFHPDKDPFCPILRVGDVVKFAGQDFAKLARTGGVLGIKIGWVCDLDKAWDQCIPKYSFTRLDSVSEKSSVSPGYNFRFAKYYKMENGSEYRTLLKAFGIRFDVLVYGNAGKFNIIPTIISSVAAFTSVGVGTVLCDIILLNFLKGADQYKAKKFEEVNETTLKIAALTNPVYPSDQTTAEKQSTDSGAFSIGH
Excerpt: For 1321N1 astrocytoma cells stably expressing the human, rat, or mouse P2X7Rs, or hP2X2Rs or hP2X4Rs, the fluorescent Ca^2+-chelating dye Fluo-4 acetoxymethyl ester (Fluo-4 AM, Thermo Fisher Scientific, Dreieich, Germany) was used. For 1321N1 astrocytoma cell lines recombinantly expressing the hP2X1Rs or hP2X3Rs, the FLIPR® Calcium 5 Assay Kit (Molecular Devices, San José, CA, USA) was employed. Human, rat, and mouse P2X7Rs as well as hP2X1Rs, hP2X2Rs, hP2X3Rs, and hP2X4Rs were recombinantly expressed in 1321N1 astrocytoma cells using a retroviral expression system[72]–[74].
as §2

Compound	% inhibition ± SD at 10 μM, hP2X4R (hP2X4R)	% inhibition ± SD at 10 μM, hP2X2R (hP2X2R)	activity at 0.03 µM (rP2X7R; 1321-N1, Log(c) M -7.52288, read-out: normalized calcium signal, rP2X7R IC50 curve)	activity at 0.01 µM (rP2X7R; 1321-N1, Log(c) M -8, read-out: normalized calcium signal, rP2X7R IC50 curve)	IC50 (rP2X7R)	normalized calcium signal, rP2X7R IC50 curve (rP2X7R; Log(c) M -7.52288, 0.03 µM)	normalized calcium signal, rP2X7R IC50 curve (rP2X7R; Log(c) M -8, 0.01 µM)	normalized calcium signal, rP2X7R IC50 curve (rP2X7R; Log(c) M -8.52288, 0.003 µM)	inhibition at 10 µM (hP2X3R; 1321-N1, read-out: % inhibition ± SD at 10 μM, hP2X3R, 10 μM antagonist, ATP 100 nM)	hP2X3R inhibition at 10 μM (hP2X3R; Log(c) M -5, single values, 10 µM, in % (unit assumed))	hP2X3R inhibition, IC50 curve (hP2X3R; Log(c) M -6, in %)	fold more potent at the hP2X7R versus the hP2X3R (hP2X3R; calcium influx IC50 ratio)	IC50 (hP2X3R; calcium influx, estimated)	activity at 0.003 µM (rP2X7R; 1321-N1, Log(c) M -8.52288, read-out: normalized calcium signal, rP2X7R IC50 curve)	activity at 0.001 µM (rP2X7R; 1321-N1, Log(c) M -9, read-out: normalized calcium signal, rP2X7R IC50 curve)	activity at 0.0003 µM (rP2X7R; 1321-N1, Log(c) M -9.52288, read-out: normalized calcium signal, rP2X7R IC50 curve)	normalized calcium signal, rP2X7R IC50 curve (rP2X7R; Log(c) M -9, 0.001 µM)	times more potent than UB-ALT-P30 on the rP2X7R (rP2X7R; calcium influx)
O=C(NNc1ccccc1Cl)C12CC3CC(CC(C3)C1)C2 [UB-ALT-P30, reference compound]	44 ± 14%	29 ± 7%	94.8%	98.3%	116 ± 50 nM	96.1595 and 98.0559 and 102.654 and 103.189	98.7308 and 105.449 and 107.576 and 114.231 and 110.835	87.0316 and 95.5173 and 98.7016 and 89.3009 and 111.685 and 110.916 and 108.743	86 ± 9%	94.9053 and 93.1871 and 60.8032 and 85.3564 and 91.979 and 90.698 and 90.7697 and 79.3438	58.8384 and 67.0023 and 59.1901 and 77.3652	40 fold	707 ± 185 nM	–	–	–	–	–
CC12CC3CC1(C)C1(C)CC3(C(=O)NNc3ccccc3Cl)CC21C [UB-MBX-46]	41 ± 19%	15 ± 9%	–	–	40.6 ± 10.4 nM	–	92.0673 and 92.0463 and 93.4263 and 100.969 and 74.9729 and 70.4733	98.336 and 95.4706 and 107.675 and 91.9395	–	–	–	–	–	92.9%	83%	92.1%	97.4351	~ 3 x

Reference: PMC12436592 (Nature Communications, 2025)
